Source: US20250263424A1, “KRAS INHIBITORS” (Bristol-Myers Squibb Company, priority 2022, published 2025)

Molecular target: Recombinant GMPPNP-loaded KRAS G12C (KRAS-G12C(ON), active form) (Homo sapiens, UniProt P01116, G12C)
Test: KRAS G12C RAF Disruption Assay (HTRF)
Format: biochemical
Settings: GMPPNP-loaded KRAS G12C 5 nM, GST-RAF1 RBD 9 nM, values given in μM, read-out: KRASG12C RAF Disruption Assay (IC50)
Summary of the method: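 GMPPNP-loaded KRAS G12C (5 nM) preincubated with compound 20 min at room temperature in Tris pH 7.5 buffer with MgCl2, DTT and BSA. GST-RAF1 RBD (9 nM) then added for 20 min, and SA-Tb (0.25 nM) for 3 h. HTRF 520/495 ratio read; IC50 taken from the dose-response curve.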

Recombinant GMPPNP-loaded KRAS G12C (KRAS-G12C(ON), active form), sequence (P01116 1-188 isoform P01116-2 G12C): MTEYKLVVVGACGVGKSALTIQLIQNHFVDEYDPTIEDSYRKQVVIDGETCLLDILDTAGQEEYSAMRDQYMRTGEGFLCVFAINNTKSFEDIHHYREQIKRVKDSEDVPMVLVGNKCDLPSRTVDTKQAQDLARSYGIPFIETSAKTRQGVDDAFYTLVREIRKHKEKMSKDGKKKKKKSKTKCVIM

Row | Compound | IC50 [µM]
1 | Cc1cc(N)nc(-c2c(Cl)cc3c(N4[C@@H]5CC[C@H]4[C@H]4CN(C(=O)/C(F)=C/c6nccs6)C[C@H]45)nc(OC[C@]45CCCN4C[C@H](F)C5)nc3c2F)c1C(F)(F)F (atropisomer, axis not shown; (aR)) [Example 17, (Z)-1-((3aR,4S,7R,7aS)-8-((7M)-7-(6-amino-4-methyl-3-(trifluoromethyl)pyridin-2-yl)-6-chloro-8-fluoro-2-(((2R,7aR)-2-fluorotetrahydro-1H-pyrrolizin-7a(5H)-yl)methoxy)quinazolin-4-yl)octahydro-2H-4,7-epiminoisoindol-2-yl)-2-fluoro-3-(thiazol-2-yl)prop-2-en-1-one] | 5.8
2 | Cc1cc(N)nc(-c2c(Cl)cc3c(N4CC5CN(C(=O)/C(F)=C/c6nccs6)C5C4)nc(OC[C@]45CCCN4C[C@H](F)C5)nc3c2F)c1C(F)(F)F (single isomer, unassigned) [Example 15, Isomer 2] | 47.4
3 | C#Cc1c(F)ccc2cc(O)cc(-c3ccc4c(N5C[C@H]6CC[C@@H](C5)N6C(=O)/C(F)=C/c5ncccn5)nc(OC[C@@H]5CCCN5C)nc4c3F)c12 [Example 30, (Z)-1-((1R,5S)-3-(7-(8-ethynyl-7-fluoro-3-hydroxynaphthalen-1-yl)-8-fluoro-2-(((S)-1-methylpyrrolidin-2-yl)methoxy)quinazolin-4-yl)-3,8-diazabicyclo[3.2.1]octan-8-yl)-2-fluoro-3-(pyrimidin-2-yl)prop-2-en-1-one] | 21.3
4 | Cc1cc(N)nc(-c2c(Cl)cc3c(N4CCC5C(CCN5C(=O)/C(F)=C/c5nccs5)C4)nc(OC[C@]45CCCN4C[C@H](F)C5)nc3c2F)c1C(F)(F)F (single isomer, unassigned) [Example 26, Isomer 2] | 55.2
5 | Cc1cc(N)nc(-c2c(Cl)cc3c(N4CCC5C(CCN5C(=O)/C(F)=C/c5nccs5)C4)nc(OC[C@]45CCCN4C[C@H](F)C5)nc3c2F)c1C(F)(F)F (single isomer, unassigned) [Example 26, Isomer 1] | 3.37

Same assay, conditions: GMPPNP-loaded KRAS G12C 5 nM, GST-RAF1 RBD 9 nM, values in nM, read-out: KRASG12C RAF Disruption Assay (IC50)

Row | Compound | IC50 [µM]
6 | CCc1cccc2cccc(-c3ccc4c(N5CCN(C(=O)/C(F)=C/c6ccccn6)[C@@H](CC#N)C5)nc(OC[C@@H]5CCCN5C)nc4c3F)c12 [Example 59, 2-((S)-4-(7-(8-ethylnaphthalen-1-yl)-8-fluoro-2-(((S)-1-methylpyrrolidin-2-yl)methoxy)quinazolin-4-yl)-1-((Z)-2-fluoro-3-(pyridin-2-yl)acryloyl)piperazin-2-yl)acetonitrile] | 0.26
7 | Cc1ccc2[nH]ncc2c1-c1ccc2c(N3CCN(C(=O)/C(F)=C/c4nccs4)[C@@H](CC#N)C3)nc(OC[C@@]34CCCN3C[C@H](F)C4)nc2c1F [Example 77, 2-((2S)-4-(8-fluoro-2-(((2R,7aS)-2-fluorotetrahydro-1H-pyrrolizin-7a(5H)-yl)methoxy)-7-(5-methyl-1H-indazol-4-yl)quinazolin-4-yl)-1-((Z)-2-fluoro-3-(thiazol-2-yl)acryloyl)piperazin-2-yl)acetonitrile] | 0.05
8 | Cc1ccc2[nH]ncc2c1-c1ccc2c(N3CCN(C(=O)/C(F)=C/c4nccs4)[C@@H](CC#N)C3)nc(OC[C@@H]3CCCN3C)nc2c1F [Example 51, 2-((2S)-1-((Z)-2-fluoro-3-(thiazol-2-yl)acryloyl)-4-(8-fluoro-7-(5-methyl-1H-indazol-4-yl)-2-(((S)-1-methylpyrrolidin-2-yl)methoxy)quinazolin-4-yl)piperazin-2-yl)acetonitrile] | 0.16
9 | CN1CCC[C@H]1COc1nc(N2CCN(C(=O)/C(F)=C/c3ccccn3)[C@@H](CC#N)C2)c2ccc(-c3cccc4cccc(Cl)c34)c(F)c2n1 [Example 37, 2-((S)-1-((Z)-2-fluoro-3-(pyridin-2-yl)acryloyl)-4-(8-fluoro-7-(8-chloronaphthalen-1-yl)-2-(((S)-1-methylpyrrolidin-2-yl)methoxy)quinazolin-4-yl)piperazin-2-yl)acetonitrile] | 0.11
10 | C#Cc1cccc2cccc(-c3ccc4c(N5CCN(C(=O)/C(F)=C/c6ccccn6)[C@@H](CC#N)C5)nc(OC[C@@]56CCCN5C[C@H](F)C6)nc4c3F)c12 [Example 85, 2-((S)-4-(7-(8-ethynylnaphthalen-1-yl)-8-fluoro-2-(((2R,7aS)-2-fluorotetrahydro-1H-pyrrolizin-7a(5H)-yl)methoxy)quinazolin-4-yl)-1-((Z)-2-fluoro-3-(pyridin-2-yl)acryloyl)piperazin-2-yl)acetonitrile] | 0.025
11 | C#Cc1c(F)ccc2cc(O)cc(-c3ccc4c(N5CCN(C(=O)/C(F)=C/c6nccs6)CC5)nc(OC[C@@]56CCCN5C[C@H](F)C6)nc4c3F)c12 [Example 72, (Z)-1-(4-(7-(8-ethynyl-7-fluoro-3-hydroxynaphthalen-1-yl)-8-fluoro-2-(((2R,7aS)-2-fluorotetrahydro-1H-pyrrolizin-7a(5H)-yl)methoxy)quinazolin-4-yl)piperazin-1-yl)-2-fluoro-3-(thiazol-2-yl)prop-2-en-1-one] | 0.002
12 | Cc1ccc2[nH]ncc2c1-c1ccc2c(N3CCN(C(=O)/C(F)=C/c4ncccn4)[C@@H](CC#N)C3)nc(OC[C@@H]3CCCN3C)nc2c1F [Example 52, 2-((2S)-1-((Z)-2-fluoro-3-(pyrimidin-2-yl)acryloyl)-4-(8-fluoro-7-(5-methyl-1H-indazol-4-yl)-2-(((S)-1-methylpyrrolidin-2-yl)methoxy)quinazolin-4-yl)piperazin-2-yl)acetonitrile] | 0.45
13 | Cc1cc2[nH]ncc2c(-c2ccc3c(N(C)[C@@H]4CCN(C(=O)/C(F)=C/c5nccs5)C4)nc(OC[C@@]45CCCN4C[C@H](F)C5)nc3c2F)c1Cl [Example 84, (Z)-1-((3R)-3-((7-(5-chloro-6-methyl-1H-indazol-4-yl)-8-fluoro-2-(((2R,7aS)-2-fluorotetrahydro-1H-pyrrolizin-7a(5H)-yl)methoxy)quinazolin-4-yl)(methyl)amino)pyrrolidin-1-yl)-2-fluoro-3-(thiazol-2-yl)prop-2-en-1-one] | 0.098
